We go through eight compounds from PubChem BioAssay (NCI).

Test systems include A498 renal; A549 NSCLC; LOX IMVI melanoma; NCI-H23 lung; PC-3 prostate; SF-268 CNS; SK-OV-3 ovarian; SN12C renal; SW-620 colon; TK-10 renal.
Common to all, as to assay: growth of human tumour cells (NCI), 48 h

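Values below derive from 48-hour exposures of cells grown in 96-well plates, with endpoints linearly interpolated between the two concentrations bracketing the appropriate inhibition level. GI50 marks 50% less growth. The concentration for full growth arrest is given as TGI.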

With `COc1cc(/C=C/C(=O)/C=C/c2ccc(-n3ccnc3)cc2)ccc1O`, the GI50 is 7.22 µM with A498 renal; 3.19 µM in the assay with A549 NSCLC; 1.74 µM with LOX IMVI melanoma; 2.07 µM in the assay with NCI-H23 lung; 2.19 µM in the assay on PC-3 prostate; 3.08 µM in the assay on SF-268 CNS. Besides, the GI50 in the assay with SK-OV-3 ovarian is 6.07 µM; in the assay with SN12C renal it was 2.41 µM; in the assay with SW-620 colon it was 2.34 µM; with TK-10 renal it was 4.42 µM. Also, the TGI in the assay on A498 renal came out at 19.9 µM; in the assay on A549 NSCLC it was 15.6 µM; with LOX IMVI melanoma, 3.19 µM; with NCI-H23 lung, 5.04 µM; with PC-3 prostate it was 5.4 µM; with SF-268 CNS it was 16.2 µM. The TGI came to 36.1 µM with SK-OV-3 ovarian, 7.53 µM in the assay on SN12C renal, 5.78 µM with SW-620 colon and 36.3 µM with TK-10 renal.
Consider `O=C(NCCNC1=CC(=O)c2nc3ccccc3c3ccnc1c23)c1cnccn1`, for which the GI50 was over 100 µM in the assay with A498 renal; 36.3 µM in the assay with A549 NSCLC; 33.9 µM in the assay on LOX IMVI melanoma; 46.4 µM in the assay on NCI-H23 lung; 13.1 µM in the assay with PC-3 prostate; 31 µM with SF-268 CNS. The GI50 was over 100 µM in the assay on SK-OV-3 ovarian, 49.5 µM in the assay on SN12C renal, 24.2 µM in the assay with SW-620 colon and 10.3 µM in the assay with TK-10 renal. Besides, the TGI in the assay with A498 renal, in the assay on A549 NSCLC, in the assay on LOX IMVI melanoma, in the assay with NCI-H23 lung, in the assay with PC-3 prostate and in the assay on SF-268 CNS was over 100 µM throughout. Moreover, the TGI in the assay with SK-OV-3 ovarian was over 100 µM; in the assay on SN12C renal, over 100 µM; in the assay on SW-620 colon, over 100 µM; in the assay with TK-10 renal, 37.2 µM.
With `COc1ccc(N=C2C(=O)Nc3ccc(Br)cc32)cc1`, the TGI was over 100 µM in the assay on A498 renal; over 100 µM in the assay on A549 NSCLC; 27.4 µM in the assay on LOX IMVI melanoma; 45 µM in the assay with NCI-H23 lung; over 100 µM in the assay with PC-3 prostate; 57.2 µM in the assay with SF-268 CNS. Moreover, the TGI was found to be 75.3 µM in the assay with SK-OV-3 ovarian, 40.1 µM in the assay on SN12C renal, 63.8 µM with SW-620 colon and 56.9 µM with TK-10 renal.
Regarding `Cn1cc(C2=C(c3cccc([N+](=O)[O-])c3)C(=O)NC2=O)c2ccccc21`, the GI50 in the assay with A498 renal was 0.539 µM; with A549 NSCLC, 8.52 µM; in the assay with LOX IMVI melanoma, 3.94 µM; with NCI-H23 lung it was 6.66 µM; with PC-3 prostate it was 5.61 µM; in the assay on SF-268 CNS, 11.8 µM. Besides, the GI50 was 6.35 µM with SK-OV-3 ovarian, 9.61 µM with SN12C renal, 11.4 µM in the assay on SW-620 colon and 12.1 µM in the assay with TK-10 renal. The TGI is 1.81 µM in the assay on A498 renal; over 25 µM in the assay with A549 NSCLC; over 25 µM with LOX IMVI melanoma; over 25 µM in the assay on NCI-H23 lung; over 25 µM in the assay with PC-3 prostate; over 25 µM in the assay on SF-268 CNS. Further, the TGI with SK-OV-3 ovarian, in the assay on SN12C renal, in the assay with SW-620 colon and in the assay with TK-10 renal was over 25 µM throughout.
On to `COc1cc(C(=O)/C=C/c2c(C)n([O-])c3ccc(Cl)cc3[n+]2=O)cc(OC)c1OC`, for which the GI50 was 0.208 µM with A498 renal; 25.4 µM in the assay on A549 NSCLC; 5.78 µM in the assay with LOX IMVI melanoma; 7.59 µM with NCI-H23 lung; 26.9 µM in the assay on PC-3 prostate; 3.53 µM with SF-268 CNS. The GI50 in the assay with SK-OV-3 ovarian was 24.9 µM; with SN12C renal, 10.4 µM; in the assay with SW-620 colon, 2.57 µM; with TK-10 renal, 7.83 µM. In addition, the TGI was 41 µM in the assay with A498 renal; over 100 µM in the assay with A549 NSCLC; over 100 µM in the assay on LOX IMVI melanoma; 68.6 µM with NCI-H23 lung; over 100 µM in the assay on PC-3 prostate; 98.7 µM with SF-268 CNS. In addition, the TGI was over 100 µM with SK-OV-3 ovarian, over 100 µM in the assay with SN12C renal, 11.7 µM in the assay with SW-620 colon and over 100 µM in the assay on TK-10 renal.
With `COc1ccc(C2=NOC3=c4ccccc4=CSC3=C2c2ccccc2)cc1`, the TGI is over 100 µM in the assay on A498 renal; over 100 µM in the assay with A549 NSCLC; over 100 µM with LOX IMVI melanoma; over 100 µM in the assay with NCI-H23 lung; over 100 µM with PC-3 prostate; 79.6 µM with SF-268 CNS. Also, the TGI is over 100 µM in the assay on SK-OV-3 ovarian, 68.9 µM with SN12C renal, over 100 µM in the assay with SW-620 colon and over 100 µM in the assay on TK-10 renal. In addition, the GI50 in the assay on A549 NSCLC is over 100 µM; with LOX IMVI melanoma, 44.8 µM; in the assay with NCI-H23 lung, 46.2 µM; in the assay on PC-3 prostate, 20.5 µM; in the assay with SF-268 CNS, 23.5 µM; in the assay with SK-OV-3 ovarian, over 100 µM. Besides, the GI50 in the assay on SN12C renal is 22 µM; in the assay with SW-620 colon, 28.9 µM; in the assay on TK-10 renal it was 54 µM.
Take `CCCCCCCC(=O)OC[n+]1cccc(-c2c(COC(=O)NC(C)C)c(COC(=O)NC(C)C)c3n2CCC3)c1`: the TGI in the assay with A498 renal was over 89.4 µM; in the assay with A549 NSCLC it was over 100 µM; with LOX IMVI melanoma it was over 100 µM; in the assay on NCI-H23 lung, over 100 µM; in the assay with PC-3 prostate, over 100 µM; in the assay on SF-268 CNS, over 100 µM. In addition, the TGI in the assay on SK-OV-3 ovarian, with SN12C renal, in the assay with SW-620 colon and in the assay with TK-10 renal was over 100 µM each time.
Turning to `COc1ccc(-c2nn(-c3cccc(Cl)c3)cc2-c2c(C#N)c(=O)n3[nH]c(-c4ccc(C)o4)nc3c2C#N)cc1`, the GI50 with A498 renal was 1.55 µM; in the assay on A549 NSCLC, 4.57 µM; in the assay with LOX IMVI melanoma it was 3.92 µM; with NCI-H23 lung, 8.09 µM; in the assay on PC-3 prostate, 2.25 µM; in the assay on SF-268 CNS it was 5.23 µM. The GI50 in the assay on SK-OV-3 ovarian is 11.7 µM; in the assay on SN12C renal, 5.3 µM; in the assay on SW-620 colon, 9.21 µM; with TK-10 renal, 12.4 µM. For the same compound, the TGI was 10.7 µM in the assay with A498 renal; over 50 µM in the assay with A549 NSCLC; 12.3 µM in the assay with LOX IMVI melanoma; over 50 µM in the assay on NCI-H23 lung; over 50 µM in the assay on PC-3 prostate; over 50 µM in the assay on SF-268 CNS. Moreover, the TGI in the assay with SK-OV-3 ovarian, in the assay with SN12C renal, with SW-620 colon and with TK-10 renal was over 50 µM throughout.
